Results: patent publication US8841290B2, “Substituted tetrahydronaphthalenes, method for the production thereof, and use thereof as drugs” (Sanofi, priority 2009, dated 2014)
≈ marks a conversion by molar mass, not a printed value.

Columns and labels:
[1] = molecular target: T1, human MCH receptor (Homo sapiens, UniProt Q99705); assay: calcium mobilization assay (FLIPR), functional IC50 of MCH1R antagonists; assay type: cell-based; details: recombinant HEK293 cell line expressing the human MCH receptor; calcium flux after addition of agonist (MCH); read-out: IC50
T1 construct: expressed in transfected cells
From the text: A difference from the reference was, however, the use of the plasmid pEAK8 from EDGE Biosystems (USA) for the construction of the expression vector. The host used for the transfection was a transformed HEK cell line named “PEAK Stable Cells” (likewise from EDGE Biosystems). Functional measurements of the cellular calcium flux after addition of agonist (MCH) in the presence of ligand of the invention took place with the aid of the FLIPR apparatus from Molecular Devices (USA), using protocols of the apparatus manufacturer.

[2] = nephelometric (kinetic) solubility determination, phosphate buffer pH 7.4; assay type: physicochemical; details: for solubility kinetic: aqueous buffer, kinetic from dmso stock
Protocol: A DMSO solution of the test compound (2.5 mM; 0.5 μl) is pipetted into 200 μl of an aqueous test solution (e.g. phosphate-buffered saline, 10×, 1M, Sigma, adjusted to 10 mM, pH 7.4) in a 96-well microtiter plate, and the turbidity is measured at the resulting theoretical concentration for the test compound of 6.25 μM using a nephelometer (e.g. Nephelostar Galaxy, BMG Labtech). The concentration of the test compound in the aqueous test solution is then raised to a theoretical 12.5 μM by adding further DMSO solution (2.5 mM; 0.5 μl), and the turbidity measurement is repeated. Further additions of DMSO solutions (1 μl, 2.5 mM; 0.5 μl, 10 mM; then 9×1 μl, 10 mM resulting in theoretical concentrations of 25 μM, 50 μM, 100 μM, 150 μM, 200 μM, 250 μM, 300 μM, 350 μM, 400 μM, 450 μM and 500 μM) with turbidity measurement in between complete the measurement process.
Evaluation: The turbidity values from the nephelometer are plotted against the theoretical concentration of the test compound in the aqueous test solution. As soon as a significant turbidity is detected (e.g. 5 times above the control value of the aqueous test solution) at a theoretical concentration, the level of concentration below this is stated to be the solubility limit of the test compound in the test solution. Thus, the maximum possible measurement range emerges as values<6.25 μM, 6.25-500 μM and >500 μM.

[3] = nephelometry, Table 8, reference compounds versus inventive examples

T1 sequence (Q99705 whole entry): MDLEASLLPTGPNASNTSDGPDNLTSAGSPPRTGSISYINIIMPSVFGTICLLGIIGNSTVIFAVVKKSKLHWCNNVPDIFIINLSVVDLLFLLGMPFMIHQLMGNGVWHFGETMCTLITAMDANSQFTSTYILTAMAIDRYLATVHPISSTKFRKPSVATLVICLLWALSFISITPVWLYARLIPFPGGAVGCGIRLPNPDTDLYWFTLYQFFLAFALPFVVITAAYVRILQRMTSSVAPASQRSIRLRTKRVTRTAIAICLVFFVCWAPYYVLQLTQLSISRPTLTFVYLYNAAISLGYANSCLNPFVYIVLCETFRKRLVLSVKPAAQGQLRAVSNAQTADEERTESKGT

Row | Compound | IC50 [1] | solubility kinetic ([2]; nephelometric, Table 7) | solubility kinetic [2, 3] | pH 7.4 (solubility) [2, 3]
1 | CCCOc1ccc(C(=O)N(C)[C@H]2CCc3cc(CNCC4CCOCC4)ccc3C2)nc1 [Example 2-08] | 220 nM | > 283 µg/mL |  | 
2 | COCC1(CNCc2ccc3c(c2)CC[C@H](N(C)C(=O)c2ccc(OCC4CC4)cc2)C3)CC1 [Example 7-22] | 148 nM | > 288 µg/mL |  | 
3 | COC[C@H](C)NCc1ccc2c(c1)CC[C@H](N(C)C(=O)c1ccc(OCC3CC3)cc1)C2 [Example 7-24] | 384 nM | > 275 µg/mL |  | 
4 | CN(C(=O)c1ccc(OCC2CC2)cc1)[C@H]1CCc2cc(CNCC3CCCOC3)ccc2C1 (stereo partly drawn) [Example 1-07] | 154 nM | > 288 µg/mL |  | 
5 | CN(C(=O)c1ccc(OCC2CC2)cc1)[C@H]1CCc2cc(CNC3CCCCC3)ccc2C1 [Example 7-07] | 336 nM | > 280 µg/mL |  | 
6 | CN(C(=O)c1ccc(OCC2CC2)cc1)[C@H]1CCc2cc(CN3CCCCCC3)ccc2C1 [Example 7-15] | 336 nM | > 280 µg/mL |  | 
7 | CN(C(=O)c1ccc(OCC2CC2)cn1)[C@H]1CCc2cc(CNCC3CCOCC3)ccc2C1 [Example 3, 5-Cyclopropylmethoxypyridine-2-carboxylic acid methyl-((S)-6-{[(tetrahydropyran-4-ylmethyl)amino]methyl}-1,2,3,4-tetrahydronaphthalen-2-yl)amide] | 180 nM | > 289 µg/mL |  | 
8 | CN(C(=O)c1ccc(OCC2CC2)cc1)[C@H]1CCc2cc([C@H]3CCCN3CC3CCOCC3)ccc2C1 [Example 5-03] | 858 nM | 15 µg/mL (≈ 29.8 µM) |  | 
9 | CN(C(=O)c1ccc(OCC2CC2)cc1)[C@H]1CCc2cc(CN3CCC3)ccc2C1 [Example 7-09] | 261 nM | > 259 µg/mL |  | 
10 | CN(C(=O)c1ccc(OCC2CC2)cc1)[C@H]1CCc2cc(CNC[C@@H]3CCCO3)ccc2C1 [Example 1-02] | 215 nM | > 281 µg/mL |  | 
11 | CN(C(=O)c1ccc(C2CCCCC2)cc1)[C@H]1CCc2cc(CNCC3CCOCC3)ccc2C1 [Example 2-01, 4-Cyclohexyl-N-methyl-N—((S)-6-{[(tetrahydropyran-4-ylmethyl)amino]methyl}-1,2,3,4-tetrahydronaphthalen-2-yl)benzamide] | 1330 nM | > 294 µg/mL |  | 
12 | CCN1CCCCC1c1ccc2c(c1)CC[C@H](N(C)C(=O)c1ccc(OCC3CC3)cc1)C2 (stereo partly drawn) [Example 5-07] | 370 nM | > 280 µg/mL |  | 
13 | O=C(N[C@H]1CCc2cc(CN3CCCC3)ccc2C1)c1ccc(-c2ccc(F)cc2)cc1 [Ref-1, reference compound] |  |  | 3 µg/mL (≈ 7 µM) | 
14 | CN(C(=O)c1ccc(OCC2CC2)cc1)[C@H]1CCc2cc(CNC[C@H]3CCCO3)ccc2C1 [Example 1-03] | 130 nM | > 281 µg/mL |  | 
15 | COCCCNCc1ccc2c(c1)CC[C@H](N(C)C(=O)c1ccc(OCC3CC3)cc1)C2 [Example 7-21] | 133 nM | > 275 µg/mL |  | 
16 | CN(C(=O)c1ccc(OCC2CC2)cc1)[C@H]1CCc2cc(CNCC3CCOC3)ccc2C1 (stereo partly drawn) [Example 1-04] | 116 nM | > 281 µg/mL |  | 
17 | CN(C(=O)c1ccc(-c2ccc(F)cc2)cc1)[C@H]1CCc2cc(CN3CCCC3)ccc2C1 [Ref-2, reference compound] |  |  | 7 µg/mL (≈ 15.8 µM) | 
18 | CCCCOc1ccc(C(=O)N(C)[C@H]2CCc3cc(CNCC4CCOCC4)ccc3C2)nc1 [Example 2-07] | 141 nM | > 290 µg/mL |  | 
19 | CN(C(=O)c1ccc(OCC2CC2)cc1)[C@H]1CCc2cc(CNCCC3CCCO3)ccc2C1 (stereo partly drawn) [Example 1-10] | 140 nM | > 288 µg/mL |  | 
20 | C[C@H]1CC[C@H](c2ccc3c(c2)CC[C@H](N(C)C(=O)c2ccc(OCC4CC4)cc2)C3)N1C [Example 5-04] | 134 nM | > 273 µg/mL |  | 
21 | CN(C(=O)c1ccc(OCC2CC2)cn1)[C@H]1CCc2cc(CN3CCCCCC3)ccc2C1 [Example 7-27] | 756 nM | 168 µg/mL (≈ 375 µM) |  | 

Row | Compound | IC50 [1] | solubility kinetic ([2]; nephelometric, Table 7) | solubility kinetic [2, 3] | pH 7.4 (solubility) [2, 3]
22 | C[C@H]1CC[C@H](c2ccc3c(c2)CC[C@H](N(C)C(=O)c2ccc(OCC4CC4)cc2)C3)N1 [Example 4-02, 4-Cyclopropylmethoxy-N-methyl-N—[(S)-6-((2R,5S)-5-methylpyrrolidin-2-yl)-1,2,3,4-tetrahydronaphthalen-2-yl]benzamide] | 228 nM | 10 µg/mL (≈ 23.9 µM) |  | 
23 | CCOCCNCc1ccc2c(c1)CC[C@H](N(C)C(=O)c1ccc(OCC3CC3)cc1)C2 [Example 7-23] | 108 nM | > 275 µg/mL |  | 
24 | CC(C)COc1ccc(C(=O)N(C)[C@H]2CCc3cc(CNCC4CCOCC4)ccc3C2)nc1 [Example 2-09] | 360 nM | > 290 µg/mL |  | 
25 | CC[C@H](O)COc1ccc(C(=O)N[C@H]2CCc3cc(CN4CCCC4)ccc3C2)cc1 [Example 6-02] | 223 nM | > 268 µg/mL |  | >0.268 mg/ml
26 | CN(Cc1ccc2c(c1)CC[C@H](N(C)C(=O)c1ccc(OCC3CC3)cc1)C2)CC1CCOCC1 [Example 1-13] | 284 nM | > 295 µg/mL |  | 
27 | COCC(C)(C)CNCc1ccc2c(c1)CC[C@H](N(C)C(=O)c1ccc(OCC3CC3)cc1)C2 [Example 7-25] | 286 nM | > 289 µg/mL |  | 
28 | CN(C(=O)c1ccc(NC(=O)C(F)(F)F)cc1)[C@H]1CCc2cc(CNCC3CCOCC3)ccc2C1 [Example 2-02] | 1360 nM | > 309 µg/mL |  | 
29 | CN(C(=O)c1ccc(OCC2CC2)cc1)[C@H]1CCc2cc([C@H]3CCCN3)ccc2C1 [Example 4-01, 4-Cyclopropylmethoxy-N-methyl-N—((S)—(R)-6-pyrrolidin-2-yl-1,2,3,4-tetrahydronaphthalen-2-yl)benzamide] | 136 nM | > 221 µg/mL |  | 
30 | CC1CCN(c2ccc(C(=O)N[C@H]3CCc4cc(CNCC5CCOCC5)ccc4C3)cc2)CC1 [Example 2-05] | 248 nM | 15 µg/mL (≈ 31.5 µM) |  | 
31 | CN1CCCC1c1ccc2c(c1)CC[C@H](N(C)C(=O)c1ccc(OCC3CC3)cn1)C2 (stereo partly drawn) [Example 5-10] | 646 nM | 13 µg/mL (≈ 31 µM) |  | 
32 | CC1CCN(Cc2ccc3c(c2)CC[C@H](N(C)C(=O)c2ccc(OCC4CC4)cn2)C3)CC1 [Example 7-29] | 215 nM | > 281 µg/mL |  | 
33 | CN(C(=O)c1ccc(OCC2CC2)cc1)[C@H]1CCc2cc(CN3C[C@@H]4CC[C@H]3C4)ccc2C1 [Example 7-02] | 831 nM | > 279 µg/mL |  | 
34 | CN(C(=O)c1ccc(OCC2CC2)cc1)[C@H]1CCc2cc(CN3CCC(O)CC3)ccc2C1 [Example 7-06] | 508 nM | > 281 µg/mL |  | 
35 | CCC(COC)NCc1ccc2c(c1)CC[C@H](N(C)C(=O)c1ccc(OCC3CC3)cc1)C2 (stereo partly drawn) [Example 7-19] | 563 nM | > 282 µg/mL |  | 
36 | O=C(N[C@H]1CCc2cc(CN3CCCCCC3)ccc2C1)c1ccc(OCC2CC2)cc1 [Example 7-12] | 94 nM | 3 µg/mL (≈ 6.93 µM) |  | 
37 | CCN1[C@@H](c2ccc3c(c2)CC[C@H](N(C)C(=O)c2ccc(OCC4CC4)cc2)C3)CC[C@@H]1C [Example 5-05] | 519 nM | 168 µg/mL (≈ 376 µM) |  | 
38 | CCOCCCNCc1ccc2c(c1)CC[C@H](N(C)C(=O)c1ccc(OCC3CC3)cc1)C2 [Example 7-20] | 133 nM | > 282 µg/mL |  | 
39 | O=C(N[C@H]1CCc2cc(CN3C[C@@H]4CC[C@H]3C4)ccc2C1)c1ccc(OCC2CC2)cc1 [Example 7-14] | 92 nM | > 272 µg/mL |  | 
40 | CCC1(CNCc2ccc3c(c2)CC[C@H](N(C)C(=O)c2ccc(OCC4CC4)cn2)C3)CC1 [Example 7-31] | 190 nM | > 281 µg/mL |  | 
41 | O=C(N[C@H]1CCc2cc(CN3CCCCCC3)ccc2C1)c1ccc(OCC2CCC2)cc1 [Example 6-08] | 168 nM | < 4 µg/mL |  | 
